Data as given in patent EP1727814B1, “NUCLEOSIDE ANALOGUES WITH ANTIVIRAL ACTIVITY” (Universita' Degli Studi Di Catania, priority 2004, dated 2005).

Key:
[1] = system: RT of avian retrovirus; test: Inhibition in vitro of retroviral reverse transcriptase (cDNA synthesis, 32P incorporation, gel electrophoresis); assay type: biochemical; settings: after preincubation with PBMC lysates
From the text: In addition to the tests on cells susceptible to infection by human retroviruses, an assay was set up to highlight the capacity of the compounds A, B and C to inhibit in vitro the activity of a retroviral reverse transcriptase (RT). In short, the assay is based on the principle that starting from an RNA template, it is possible to evaluate the effect of inhibition of the capacity of the RT to synthesise cDNA, by identifying the cDNA fragment of neosynthesis, following gel electrophoretic run, thanks to incorporation of a nucleotide precursor labelled with phosphorus 32 (P32). […] As in order to be utilisable by the RT, the nucleoside analogues must be transformed into their triphosphate form, the compounds in question were placed in contact with cell protein extracts containing kinases capable of inducing phosphorylations. For this purpose protein extracts were used, obtained by lysis from a million PBMC previously stimulated in 48h of culture with PHA. The nucleoside compounds were incubated in ice for one hour with the lysates. After incubation the samples were taken to 95°C in order to inactivate the cellular enzymes present in the lysates. […]

[2] = system: HIV-1; test: Anti-HIV activity in CEM cells, p24 ELISA in supernatant
Method: The strain HIV-1 mixed with HIV-IIIB produced in chronically infected cells of lymphoid origin H-9 and therefore capable of growing the virus stably in a culture, was used to assay the anti-HIV activity. Viral inoculation was prepared by low speed centrifugation (3000 rpm) of the supernatant from the line producing the virus and by subsequent ultracentrifugation (40,000 rpm). The concentrated virus was titrated in TCID 50%/ml (units infecting 50% of the cultures). Cells from the lymphoid T-cell line, CEM, were used as cells to infect. The target cells were placed in contact with various quantities of TCID 50% of titrated virus, in an interval ranging from a MOl (multiplicity of infection) of 0.0001 and 0.1 TCID 50%/cell.
The cultures were kept for 7 days at 37°C in the presence of fetal bovine serum 2%. After 2-4 days of culture the medium was removed and replaced with fresh medium to which the compounds in question were again added.
After seven days of setting up the culture, the infection was evaluated using the ELISA method, measuring the production of HIV-1 p24 protein in the supernatant of infected cultures, treated and untreated.

[3] = system: HSV-1, strain "F"; test: Plaque reduction assay in Vero cells; assay type: cell-based, herpes simplex type 1 (HSV-1); settings: Human alphaherpesvirus 1; HSV-1, Vero cells, 72h; read-out: EC50 (concentration capable of reducing the formation of plaques by 50%)
Method: (§1) To assay the activity of the compounds also towards herpes virus infections, the model for in vitro transmission of herpes simplex type 1 (HSV-1) and of herpes simplex type 2 (HSV-2) to permissive cells of the Vero cell line and plaque reduction assay were used. Vero cells were transferred and cultivated for 24h at 37°C in six-well plates for the cultures to reach confluence. After removal of the culture medium in the wells, a suspension was added containing 100 plaque forming units (PFU) of HSV-1, strain "F", or HSV-2, strain "G" in 100 µl of medium. After one hour of incubation the appropriate quantities of compounds were added diluted in culture medium with the addition of serum 2% and methylcellulose 0.8% to obtain final concentrations of the compounds ranging from 1 µM to 400 µM. The cultures were then incubated for 72h, the medium was removed from the wells and stained with crystal violet 0.8%. After removing the wash liquid, the plates were left to dry and the number of plaques was determined. Acyclovir was used as the positive reference control. A double assay was performed and the values of EC50 (concentration capable of reducing the formation of plaques by 50%) were calculated by extrapolating the mean number of plaques from the plot towards the corresponding concentrations of the compounds.

[4] = system: HSV-2, strain "G"; test: Plaque reduction assay in Vero cells; assay type: cell-based, herpes simplex type 2 (HSV-2); settings: Human alphaherpesvirus 2; HSV-2, Vero cells, 72h; read-out: EC50 (concentration capable of reducing the formation of plaques by 50%)
Method: as §1

[5] = system: HTLV-1; test: Inhibition of HTLV-1 transmission to lymphomonocytes by co-cultivation (DNA-PCR, RT-PCR, Tax Western blot); assay type: cell-based, HTLV-1 (human T lymphotropic retrovirus type 1); settings: lowest concentrations (5µM and 1 µM)
Method: (§2) To assay the capacity to inhibit transmission, lymphomonocytes of adult peripheral blood were separated by density gradient centrifugation and then infected with HTLV-1 by co-cultivation with a chronically infected line that produces viruses, following irradiation of the donor cells (Miyoshi et al. Nature 1981, 296: 770-772).
(§3) The assayed nucleoside analogues (compounds A, B and C) were added at different concentrations at the moment of infection and the treatment was repeated at 3, 7 and 10 days from the first exposure.
The infection was monitored by verifying that the cells treated had become infected, compared to untreated controls, four weeks after infection. The infection was determined by monitoring the presence of proviral DNA and the viral RNA expression, by DNA-PCR and RT-PCR assay respectively. With these techniques it is possible to amplify and highlight the viral genome of HTLV-1 integrated into the host cell, that is virus-specific RNA-messengers, by the use of specific oligonucleotides for viral regions.
For further evaluation of the infection the viral protein expression of HTLV-1 Tax was also highlighted using Western blot analysis with specific monoclonal antibodies.

[6] = system: lymphomonocytes of adult peripheral blood; test: Proliferative response of infected and uninfected lymphomonocyte cultures; assay type: cell-based; settings: lowest concentrations (5µM and 1 µM)
Method: as §2, §3
Moreover, the infected and uninfected cultures, treated or untreated with the compounds in question, were assayed to determine the proliferative response during infection, in order to verify, in addition to the antiviral effect also any antiproliferative effect with regard to the infected cultures.

[7] = Human immunodeficiency virus 1, CCRF-CEM, 168 h, read-out: inhibition of the production of p24 in the supernatant of infected cultures

Row | Compound | inhibition of RT activity ([1]; 0.1 and 10 µM) | inhibition at 0.004 µM [2, 7] | inhibition at 0.04 µM [2, 7] | inhibition at 0.4 µM [2, 7] | EC50 [3] | EC50 [4] | inhibition of RT activity ([1]; 0.1, 1 and 20 µM) | inhibition of the production of p24 in the supernatant of infected cultures ([2]; 0.004 µM, CEM cells, 7 days) | protection from the infection [5] | antiproliferative action [6]
1 | Cc1cn([C@H]2C[C@H](N=[N+]=[N-])[C@@H](CO)O2)c(=O)[nH]c1=O [AZT, zidovudine, reference compound] | capable of inhibiting RT activity | 60% | 80% | 98% | – | – | – | – | – | –
2 | CCOP(=O)(CC1CC(n2ccc(N)nc2=O)ON1C)OCC (stereo not shown) [Compound A] | – | – | 45% | 70% | 48 µM | 72 µM | – | – | – | –
3 | CCOP(=O)(CC1CC(n2cc(C)c(=O)[nH]c2=O)ON1C)OCC (stereo not shown) [Compound B] | – | – | 50% | 70% | 62 µM | 78 µM | – | – | – | –
4 | CCOP(=O)(CC1CC(n2cc(F)c(=O)[nH]c2=O)ON1C)OCC (stereo not shown) [Compound C] | – | – | 60% | 75% | 34 µM | 56 µM | capable of inhibiting RT activity | did not cause inhibition | total protection | poor or no antiproliferative action
5 | Nc1nc2c(ncn2COCCO)c(=O)[nH]1 [acyclovir, Acyclovir, reference compound] | – | – | – | – | 14 µM | 32 µM | – | – | – | –
